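Assay format: 96-well plates, 48-hour exposure. At the TGI there is no net growth.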
tested on: 786-0 renal; assay: growth of human tumour cells (NCI), 48 h

Row | Compound | TGI [µM]
1 | Cc1nn(-c2ccccc2)c(C)c1/C=N/N=C1\SCC(=O)N1c1ccccc1 | 37.7
2 | OCC(O)C(Cl)CCl (stereo not drawn) | > 100
3 | O=C1NCc2ccccc2S(=O)(=O)n2cccc21 | > 100
4 | O=C(/C=C/c1ccccc1)NNC(=O)c1c(Cl)c(Cl)c(Cl)c(Cl)c1-c1nc2ccccc2[nH]1 | 73.8
5 | Fc1ccc(C(OCCN2CCC3CCC(C2)N3C/C=C/c2ccco2)c2ccc(F)cc2)cc1 (stereo not drawn) | 22.2
6 | O=c1c2nc3ccccc3c(=O)n2ncn1-c1ccccc1Cl | > 100
7 | CC(=O)OCC1OC(OC2CC3C(C)(C)C(OC(C)=O)CC[C@]3(C)C3CCC45CC4(CCC5[C@@H](C)C[C@H](O)C(O)C(C)(C)O)[C@]23C)C(O)C(O)C1O (stereo partly drawn) | > 10

tested on: A498 renal; assay: growth of human tumour cells (NCI), 48 h

Row | Compound | TGI [µM]
8 | Cc1nn(-c2ccccc2)c(C)c1/C=N/N=C1\SCC(=O)N1c1ccccc1 | 78.3
9 | O=C(/C=C/c1ccccc1)NNC(=O)c1c(Cl)c(Cl)c(Cl)c(Cl)c1-c1nc2ccccc2[nH]1 | 90.9
10 | Fc1ccc(C(OCCN2CCC3CCC(C2)N3C/C=C/c2ccco2)c2ccc(F)cc2)cc1 (stereo not drawn) | 23.3
11 | O=c1c2nc3ccccc3c(=O)n2ncn1-c1ccccc1Cl | > 100
12 | CC(=O)OCC1OC(OC2CC3C(C)(C)C(OC(C)=O)CC[C@]3(C)C3CCC45CC4(CCC5[C@@H](C)C[C@H](O)C(O)C(C)(C)O)[C@]23C)C(O)C(O)C1O (stereo partly drawn) | > 10

tested on: A549 NSCLC; assay: growth of human tumour cells (NCI), 48 h

Row | Compound | TGI [µM]
13 | Cc1nn(-c2ccccc2)c(C)c1/C=N/N=C1\SCC(=O)N1c1ccccc1 | 99.6
14 | OCC(O)C(Cl)CCl (stereo not drawn) | > 100
15 | O=C1NCc2ccccc2S(=O)(=O)n2cccc21 | > 100
16 | O=C(/C=C/c1ccccc1)NNC(=O)c1c(Cl)c(Cl)c(Cl)c(Cl)c1-c1nc2ccccc2[nH]1 | 67.7
17 | Fc1ccc(C(OCCN2CCC3CCC(C2)N3C/C=C/c2ccco2)c2ccc(F)cc2)cc1 (stereo not drawn) | 29.5
18 | O=c1c2nc3ccccc3c(=O)n2ncn1-c1ccccc1Cl | > 100
19 | CC(=O)OCC1OC(OC2CC3C(C)(C)C(OC(C)=O)CC[C@]3(C)C3CCC45CC4(CCC5[C@@H](C)C[C@H](O)C(O)C(C)(C)O)[C@]23C)C(O)C(O)C1O (stereo partly drawn) | > 10

tested on: ACHN renal; assay: growth of human tumour cells (NCI), 48 h

Row | Compound | TGI [µM]
20 | Cc1nn(-c2ccccc2)c(C)c1/C=N/N=C1\SCC(=O)N1c1ccccc1 | 34.4
21 | OCC(O)C(Cl)CCl (stereo not drawn) | > 100
22 | O=C1NCc2ccccc2S(=O)(=O)n2cccc21 | > 100
23 | O=C(/C=C/c1ccccc1)NNC(=O)c1c(Cl)c(Cl)c(Cl)c(Cl)c1-c1nc2ccccc2[nH]1 | > 100
24 | Fc1ccc(C(OCCN2CCC3CCC(C2)N3C/C=C/c2ccco2)c2ccc(F)cc2)cc1 (stereo not drawn) | 25.3
25 | O=c1c2nc3ccccc3c(=O)n2ncn1-c1ccccc1Cl | > 100
26 | CC(=O)OCC1OC(OC2CC3C(C)(C)C(OC(C)=O)CC[C@]3(C)C3CCC45CC4(CCC5[C@@H](C)C[C@H](O)C(O)C(C)(C)O)[C@]23C)C(O)C(O)C1O (stereo partly drawn) | > 10

tested on: BT-549 breast; assay: growth of human tumour cells (NCI), 48 h

Row | Compound | TGI [µM]
27 | Cc1nn(-c2ccccc2)c(C)c1/C=N/N=C1\SCC(=O)N1c1ccccc1 | 43
28 | OCC(O)C(Cl)CCl (stereo not drawn) | > 100
29 | O=C1NCc2ccccc2S(=O)(=O)n2cccc21 | > 100
30 | O=C(/C=C/c1ccccc1)NNC(=O)c1c(Cl)c(Cl)c(Cl)c(Cl)c1-c1nc2ccccc2[nH]1 | 76.1
31 | Fc1ccc(C(OCCN2CCC3CCC(C2)N3C/C=C/c2ccco2)c2ccc(F)cc2)cc1 (stereo not drawn) | 25.7
32 | O=c1c2nc3ccccc3c(=O)n2ncn1-c1ccccc1Cl | > 100
33 | CC(=O)OCC1OC(OC2CC3C(C)(C)C(OC(C)=O)CC[C@]3(C)C3CCC45CC4(CCC5[C@@H](C)C[C@H](O)C(O)C(C)(C)O)[C@]23C)C(O)C(O)C1O (stereo partly drawn) | > 10

tested on: CAKI-1 renal; assay: growth of human tumour cells (NCI), 48 h

Row | Compound | TGI [µM]
34 | Cc1nn(-c2ccccc2)c(C)c1/C=N/N=C1\SCC(=O)N1c1ccccc1 | 44.9
35 | OCC(O)C(Cl)CCl (stereo not drawn) | > 100
36 | O=C1NCc2ccccc2S(=O)(=O)n2cccc21 | > 100
37 | O=C(/C=C/c1ccccc1)NNC(=O)c1c(Cl)c(Cl)c(Cl)c(Cl)c1-c1nc2ccccc2[nH]1 | > 100
38 | Fc1ccc(C(OCCN2CCC3CCC(C2)N3C/C=C/c2ccco2)c2ccc(F)cc2)cc1 (stereo not drawn) | 27.9
39 | O=c1c2nc3ccccc3c(=O)n2ncn1-c1ccccc1Cl | > 100
40 | CC(=O)OCC1OC(OC2CC3C(C)(C)C(OC(C)=O)CC[C@]3(C)C3CCC45CC4(CCC5[C@@H](C)C[C@H](O)C(O)C(C)(C)O)[C@]23C)C(O)C(O)C1O (stereo partly drawn) | > 10

tested on: CCRF-CEM leukemia; assay: growth of human tumour cells (NCI), 48 h

Row | Compound | TGI [µM]
41 | Cc1nn(-c2ccccc2)c(C)c1/C=N/N=C1\SCC(=O)N1c1ccccc1 | > 100
42 | OCC(O)C(Cl)CCl (stereo not drawn) | > 100
43 | O=C1NCc2ccccc2S(=O)(=O)n2cccc21 | > 100
44 | O=C(/C=C/c1ccccc1)NNC(=O)c1c(Cl)c(Cl)c(Cl)c(Cl)c1-c1nc2ccccc2[nH]1 | 75.8
45 | Fc1ccc(C(OCCN2CCC3CCC(C2)N3C/C=C/c2ccco2)c2ccc(F)cc2)cc1 (stereo not drawn) | 0.419
46 | O=c1c2nc3ccccc3c(=O)n2ncn1-c1ccccc1Cl | > 100
47 | CC(=O)OCC1OC(OC2CC3C(C)(C)C(OC(C)=O)CC[C@]3(C)C3CCC45CC4(CCC5[C@@H](C)C[C@H](O)C(O)C(C)(C)O)[C@]23C)C(O)C(O)C1O (stereo partly drawn) | > 10

tested on: COLO 205 colon; assay: growth of human tumour cells (NCI), 48 h

Row | Compound | TGI [µM]
48 | Cc1nn(-c2ccccc2)c(C)c1/C=N/N=C1\SCC(=O)N1c1ccccc1 | 39.9

Source: PubChem BioAssay (NCI)
